Measurements from patent publication EP0121012A1, “Oral compositions” (UNILEVER PLC, priority 1983, dated 1984).

Columns and labels:
S.mutans 6715 = test: Inhibition of bacterial growth (24 h, optical density); type: cell-based, Streptococcus mutans; details: recalculated as ppm F, 1440 min
S.salivarius SS4 = test: as above; type: cell-based, Streptococcus salivarius; details: for IC50: 50% inhibition in growth, 24 hours, means of triplicate experiments, read-out: ID/50 (the source's name); for ID/50: recalculated as ppm F, 1440 min
S.salivarius H-257 = test: as above; type: cell-based, Streptococcus salivarius; details: for IC50: 50% inhibition in growth, 24 hours, means of triplicate experiments, read-out: ID/50 (the source's name); for ID/50: recalculated as ppm F, 1440 min
[1] = Dissolution of hydroxyapatite discs following fluoride treatment (phosphate release)
S.sanguis 10556 = test: Inhibition of bacterial growth (24 h, optical density); type: cell-based, Streptococcus sanguis; details: for IC50: 50% inhibition in growth, 24 hours, means of triplicate experiments, read-out: ID/50 (the source's name); for ID/50: recalculated as ppm F, 1440 min
Osborne-Mendel rats = test: Rat caries study; type: in vivo
S.mutans OMZ-176 = test: Inhibition of bacterial growth (24 h, optical density); type: cell-based, Streptococcus mutans; details: for IC50: 50% inhibition in growth, 24 hours, means of triplicate experiments, read-out: ID/50 (the source's name); for ID/50: recalculated as ppm F, 1440 min
S.sanguis 10557 = test: as above; type: cell-based, Streptococcus sanguis; details: for IC50: 50% inhibition in growth, 24 hours, means of triplicate experiments, read-out: ID/50 (the source's name); for ID/50: recalculated as ppm F, 1440 min
L.casei = test: as above; type: cell-based, Lactobacillus casei; details: for IC50: 50% inhibition in growth, 24 hours, means of triplicate experiments, read-out: ID/50 (the source's name); for ID/50: recalculated as ppm F, 1440 min
[2] = Stability of solution on standing (haze / turbidity)
[3] = normal temperature and pressure
Artificial Plaque = test: In vitro antiplaque study on saliva-coated aluminium plummets; type: cell-based; details: means ± 95% confidence limits, five replicas
pH of aqueous solution = type: physicochemical
Description: An aqueous solution of ZnNH4F3 has a pH of 5.8. The preferred pH of oral compositions containing ZnNH4F3 is from 4.5 to 8.0. A 1000 ppm F^- solution was stable.

[4] = complexing between the Zn and NH4; cited from earlier work
[5] = Availability of F ion by fluoride-selective electrode; type: physicochemical; details: Orion fluoride electrode
[6] = 1000 ppm F- solution, pH 4.0, vs disc treated with buffer alone, means of triplicate, 30 min
[7] = 1000 ppm F- solution, pH 5.0, vs disc treated with buffer alone, means of triplicate, 30 min
[8] = 1000 ppm F- solution, pH 6.0, vs disc treated with buffer alone, means of triplicate, 30 min
[9] = 1000 ppm F- solution, pH 7.0, vs disc treated with buffer alone, means of triplicate, 30 min

| Compound | ID/50 (S.mutans 6715) [ppm F] | IC50 (S.salivarius SS4) [mM] | ID/50 (S.salivarius SS4) [ppm F] | IC50 (S.salivarius H-257) [mM] | ID/50 (S.salivarius H-257) [ppm F] | % Reduction in Dissolution [1, 6] [%] | % Reduction in Dissolution [1, 7] [%] | % Reduction in Dissolution [1, 8] [%] | % Reduction in Dissolution [1, 9] [%] | IC50 (S.sanguis 10556) [mM] | ID/50 (S.sanguis 10556) [ppm F] | IC50 (S.mutans OMZ-176) [mM] | ID/50 (S.mutans OMZ-176) [ppm F] | IC50 (S.sanguis 10557) [mM] | ID/50 (S.sanguis 10557) [ppm F] | IC50 (L.casei) [mM] | ID/50 (L.casei) [ppm F] | Percentage Inhibition of Growth of Artificial Plaque (Artificial Plaque; Zinc Conc. 6.0 mM/L) | Percentage Inhibition of Growth of Artificial Plaque (Artificial Plaque; Zinc Conc. 15.0 mM/L) | Percentage Inhibition of Growth of Artificial Plaque (Artificial Plaque; Zinc Conc. 30.0 mM/L) | other results |
| --- | --- | --- | --- | --- | --- | --- | --- | --- | --- | --- | --- | --- | --- | --- | --- | --- | --- | --- | --- | --- | --- |
| [F-].[Na+] [NaF] | 138 | 13.4 | 255 | 3.77 | 72 | 44 | 36 | 31 | 31 | 1.18 | 22 | 16.3 | 309 | 1.82 | 35 | > 12 | 352 |  |  |  | Caries/ Rat (Osborne-Mendel rats; 1000 ppm F-, topical to molar teeth, 21 days, cariogenic diet, only severe lesions (B & C) scored, water control 5.25): 3.69; % Reduction (Osborne-Mendel rats; reduction in caries based on the water control, 1000 ppm F-, topical, 21 days): 29.7% |
| [F][Sn][F] [SnF2] |  |  |  |  |  | 57 | 54 | 45 | 43 |  |  |  |  |  |  |  |  |  |  |  | stability of solution ([2]; after 24 hours at room temperature): developed turbidity |
| [F][Zn][F] [ZnF2] |  |  |  |  |  |  |  |  |  |  |  |  |  |  |  |  |  |  |  |  | solubility [3]: 1.5% |
| Cl.N.[Cl-].[Cl-].[Zn+2] [ZnNH4Cl3] |  | 6.5 |  |  |  |  |  |  |  | 0.46 |  |  |  |  |  | 10 |  |  |  |  |  |
| O=S(=O)([O-])[O-].[Zn+2] [ZnSO4] |  | 6 |  | 0.75 |  |  |  |  |  | 0.36 |  | 7.5 |  | 0.4 |  | 10.4 |  | 47 ± 14 | 51 ± 14 | 64 ± 14 |  |
| zinc ammonium fluoride [ZnNH4F3] | 92 | 1.88 | 104 | 0.34 | 19 |  |  |  |  | 0.21 | 12 | 3.05 | 174 | 0.25 | 14 | 4.7 | 268 | 45 ± 14 | 48 ± 14 | 60 ± 14 | stability of solution ([2]; 1000 ppm F- solution, not hazy on standing after several weeks): stable; pH of aqueous solution (pH of aqueous solution): 5.8; % Reduction in Dissolution ([1]; hydroxyapatite discs, pH 4, 30 min): 52%; % Reduction in Dissolution ([1]; hydroxyapatite discs, pH 5, 30 min): 49%; % Reduction in Dissolution ([1]; hydroxyapatite discs, pH 6, 30 min): 43%; % Reduction in Dissolution ([1]; hydroxyapatite discs, pH 7, 30 min): 40%; log K [4]: 2.18-2.59; availability of F ion ([5]; solution at 1000 ppm F level): 100%; availability of F ion ([5]; solution at 2500 ppm F level): 100%; % Reduction (Osborne-Mendel rats; rat, in vivo): 30.9%; Caries/ Rat (Osborne-Mendel rats; rat, in vivo): 3.63 |
